Here are results for two compounds from patent publication EP0965591A1, “(s)-3-methyl-1-(2-piperidino-phenyl)-1-butylamine, its salts, synthesis and use in the long term therapy of diabetes mellitus” (Boehringer Ingelheim Pharma KG, priority 1991, dated 1993).

One series relates to weiblichen Ratten. In words: Blood-glucose-lowering effect in female rats. Particulars: for blutzuckersenkende Wirkung: female rats, comparison of the two enantiomers. Type of series: in vivo, Ratte. An excerpt:
Die beiden Enantiomeren dieser Verbindung, nämlich (S)(+)-2-Ethoxy-4-[N-[1-(2-piperidino-phenyl)-3-methyl-1-butyl]-aminocarbonylmethyl]benzoesäure (Code-Nr.: AG-EE 623 ZD) und (R) (-)-2-Ethoxy-4-[N-[1-(2-piperidino-phenyl)-3-methyl-1-butyl]aminocarbonylmethyl]benzoesäure (Code-Nr.: AG-EE 624 ZD), wurden auf ihre blutzuckersenkende Wirkung an weiblichen Ratten geprüft.

On the set-up of series [1]: species or system Menschen. The following applies: in vivo. As for the experimental part:
Dies wirkt sich z.B. bei Applikation einer Tablette mit 2 mg AG-EE 388 ZW bzw. einer Tablette mit 1 mg AG-EE 623 ZW an 12 bzw. 6 Probanden so aus, daß die Maximal-Konzentrationen 84 ± 25 bzw. 28 ± 18 ng/ml sowie die Konzentrationen nach 4 Stunden 19 ± 8 bzw. 0,7 ± 1,0 ng/ml, nach 5 Stunden 13 ± 6 bzw. 0,3 ± 0,7 ng/ml und nach 6 Stunden 10 ± 6 bzw. 0,3 ± 0,7 ng/ml betragen.

For another series, the system named is Menschen. In words: Blood-glucose-lowering effect in human studies. Type of series: in vivo. An excerpt:
Auf Grund dieser Ergebnisse an der Ratte erscheint für den Menschen die ausschließliche Verwendung von AG-EE 623 ZW geboten, wodurch die Dosis im Vergleich zur AG-EE 388 ZW-Dosis um 50 % reduziert werden kann. […] Darüber hinaus wurde jedoch bei den Human-Studien gefunden, daß AG-EE 623 ZW überraschende pharmakokinetische Eigenschaften aufweist, die auf Grund der AG-EE 388 ZW-Daten nicht vorhersehbar waren. AG-EE 623 ZW zeigt somit überraschende therapeutische Vorteile gegenüber dem Racemat AG-EE 388 ZW.

The next series has as its system Ratten. In words: Acute toxicity after a single oral dose in rats. The class given is in vivo. Particulars: single 1000 mg/kg p.o., suspension in 1% Methylcellulose; 5 male and 5 female rats; 14 days observation.

A value given as a limit tells only on which side of the number the result lay.

`CCOc1cc(CC(=O)N[C@@H](CC(C)C)c2ccccc2N2CCCCC2)ccc1C(=O)O` [AG-EE 623 ZW, (S)(+)-2-Ethoxy-4-[N-[1-(2-piperidino-phenyl)-3-methyl-1-butyl]-aminocarbonylmethyl]benzoesäure]: in the series on weiblichen Ratten, the “blutzuckersenkende Wirkung” value is “das wirksame Enantiomere”. For the same compound, in the series on weiblichen Ratten (rat, blood-glucose-lowering effect), the “Dauer der Wirkung” value was above 6 Stunden. For the same compound, in series [1], the Elimination entry is “wesentlich schneller als das unwirksame Enantiomere, AG-EE 624 ZW, eliminiert” and the “Plasmaspiegel in Relation zur erzielten Blutzuckersenkung” value is given as “wesentlich niedrigere Plasmaspiegel”. Besides, in the series with Menschen, the Wirkungsdauer entry was “relativ lange Wirkungsdauer”. Moreover, in the series with Ratten, the “verstorbene Tiere” value was “kein Tier”.
`CCOc1cc(CC(=O)N[C@H](CC(C)C)c2ccccc2N2CCCCC2)ccc1C(=O)O` [AG-EE 624 ZW, (R) (-)-2-Ethoxy-4-[N-[1-(2-piperidino-phenyl)-3-methyl-1-butyl]aminocarbonylmethyl]benzoesäure, reference compound]: the “blutzuckersenkende Wirkung” value with weiblichen Ratten is on record as “das unwirksame Enantiomere”. The “Plasma-Konzentrationen nach Racemat-Gabe” value in series [1] is recorded as “in unerwartet höheren Maximal- und Dauer-Spiegeln anwesend”.
